Experiments:
MB-231 = test system: MB-231; design: key to the marks not given beside the values
MB-468 = test system: MB-468; design: key to the marks not given beside the values
MCF-7 = test system: MCF-7; design: key to the marks not given beside the values
HT-29 = test system: HT-29; design: key to the marks not given beside the values
NCI H460 = test system: NCI H460; design: key to the marks not given beside the values
OVCAR = test system: OVCAR; design: key to the marks not given beside the values
PC-3 = test system: PC-3; design: key to the marks not given beside the values
[1] = Live/Dead cytotoxicity assay, hybridoma supernatant; details: human

SMILES: C[C@@H]1C[C@@H]([C@H](O)CC2CC(=O)NC(=O)C2)C(=O)[C@@H](C)C1 [Cycloheximide]
- cytotoxicity, experiments greater than threshold, MB-231 (MB-231): +++
- cytotoxicity, experiments greater than threshold, MB-468 (MB-468): +++
- cytotoxicity, experiments greater than threshold, MCF-7 (MCF-7): +++
- cytotoxicity, experiments greater than threshold, HT-29 (HT-29): +++
- cytotoxicity, experiments greater than threshold, NCI H460 (NCI H460): +++
- cytotoxicity, experiments greater than threshold, OVCAR (OVCAR): +++
- cytotoxicity, experiments greater than threshold, PC-3 (PC-3): +++
- cytotoxicity at 5 days [1]: 17%
